Test results published in ChEMBL document CHEMBL1201862, “PubChem BioAssay data set” (2004).
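Test compounds were applied to cells in 96-well plates for 48 hours at 5 doses. GI50 = concentration required for 50% inhibition of growth.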 The source made the active and inactive calls. Cut-off read from the data, not from the text of the source: active = GI50 up to about 1.1 µM and inactive = higher.

Key:
Experiment in all cases: NCI tumour cell line growth inhibition, 48 h
HCT-116 = system: HCT-116
HOP-62 = system: HOP-62
HOP-92 = system: HOP-92
LOX IMVI = system: LOX IMVI
NCI-H460 = system: NCI-H460
OVCAR-4 = system: OVCAR-4
OVCAR-5 = system: OVCAR-5
PC-3 = system: PC-3
RPMI-8226 = system: RPMI-8226
RXF 393 = system: RXF 393
SF-268 = system: SF-268
SK-MEL-5 = system: SK-MEL-5
SW-620 = system: SW-620
UO-31 = system: UO-31
EKVX = system: EKVX
Malme-3M = system: Malme-3M
OVCAR-8 = system: OVCAR-8
SNB-19 = system: SNB-19

Measured: GI50

CC1=Nc2c(C#N)ncn2N=C(C)C1
inactive: HCT-116 > 100 µM | HOP-62 > 100 µM | HOP-92 > 100 µM | LOX IMVI > 100 µM | NCI-H460 > 100 µM | OVCAR-4 > 100 µM | OVCAR-5 > 100 µM | PC-3 > 100 µM | RPMI-8226 > 100 µM | RXF 393 > 100 µM | SF-268 > 100 µM | SK-MEL-5 > 100 µM | SW-620 > 100 µM | UO-31 > 100 µM

N[C@H](C(=O)O)[C@@H]1CC(Br)=NO1
inactive: EKVX 73.3 µM | HCT-116 52.4 µM | HOP-62 61.9 µM | HOP-92 > 100 µM | Malme-3M > 100 µM | NCI-H460 42.2 µM | OVCAR-4 > 100 µM | OVCAR-5 61.4 µM | OVCAR-8 85.5 µM | PC-3 > 100 µM | RXF 393 > 100 µM | SF-268 > 100 µM | SK-MEL-5 54.5 µM | SNB-19 > 100 µM | SW-620 48.6 µM | UO-31 > 100 µM

COc1cc(CC2c3cc(OC)c(OC)cc3CCN2C)c(Oc2cc3c(cc2OC)-c2c(O)c(OC)cc4c2C(C3)N(C)CC4)cc1OC (stereo not drawn)
inactive: EKVX 20.5 µM | HCT-116 18.1 µM | HOP-62 23.7 µM | HOP-92 14.5 µM | LOX IMVI 16.5 µM | Malme-3M 23.8 µM | NCI-H460 18.4 µM | OVCAR-4 28.3 µM | OVCAR-5 45.8 µM | OVCAR-8 20.8 µM | PC-3 23.3 µM | RXF 393 2.11 µM | SF-268 17.8 µM | SK-MEL-5 13.9 µM | SNB-19 25.3 µM | SW-620 39.5 µM | UO-31 18.5 µM

Cc1ccc2c(c1)C(C(=O)N[C@@H]1C(=O)N3[C@@H]1SC(C)(C)[C@@H]3C(=O)O)OCCC2 (stereo partly drawn)
inactive: EKVX > 100 µM | HCT-116 > 100 µM | HOP-62 > 100 µM | HOP-92 > 100 µM | LOX IMVI > 100 µM | NCI-H460 > 100 µM | OVCAR-4 > 100 µM | OVCAR-5 > 100 µM | OVCAR-8 > 100 µM | PC-3 > 100 µM | RPMI-8226 > 100 µM | RXF 393 > 100 µM | SF-268 > 100 µM | SK-MEL-5 > 100 µM | SNB-19 > 100 µM | SW-620 > 100 µM | UO-31 > 100 µM

C/C=C(/C)C(=O)O[C@H](C[C@@H](C)[C@H]1CC(c2ccoc2)OC1=O)[C@@]1(C)C(=O)CCC2O[C@]21C (stereo partly drawn)
inactive: EKVX > 100 µM | HCT-116 > 100 µM | LOX IMVI > 100 µM | Malme-3M > 100 µM | NCI-H460 > 100 µM | OVCAR-4 > 100 µM | OVCAR-5 > 100 µM | OVCAR-8 > 100 µM | PC-3 > 100 µM | RPMI-8226 > 100 µM | RXF 393 > 100 µM | SK-MEL-5 > 100 µM | SNB-19 > 100 µM | SW-620 > 100 µM | UO-31 > 100 µM

C1CNOCCCONCCCNOCCCONC1
inactive: EKVX 50.2 µM | HCT-116 > 100 µM | HOP-62 50.1 µM | HOP-92 26.1 µM | LOX IMVI > 100 µM | Malme-3M 30.1 µM | NCI-H460 32.1 µM | OVCAR-4 70.3 µM | OVCAR-5 > 100 µM | OVCAR-8 60.7 µM | PC-3 27.6 µM | RXF 393 20.2 µM | SF-268 85.9 µM | SK-MEL-5 > 100 µM | SNB-19 57.3 µM | SW-620 > 100 µM | UO-31 > 100 µM

CCc1cc2c(oc3c4ccccc4ccc23)c(=O)[nH]1
inactive: EKVX > 10 µM | HCT-116 > 10 µM | HOP-92 > 10 µM | LOX IMVI > 10 µM | NCI-H460 > 10 µM | OVCAR-4 > 10 µM | OVCAR-5 > 10 µM | OVCAR-8 > 10 µM | PC-3 > 10 µM | RXF 393 > 10 µM | SF-268 > 10 µM | SNB-19 > 10 µM | SW-620 > 10 µM | UO-31 > 10 µM

O=C(N/N=C(COc1ccc(Cl)cc1)\N=C\c1cccnc1)c1ccncc1
inactive: EKVX > 100 µM | HCT-116 > 100 µM | HOP-62 > 100 µM | HOP-92 24.2 µM | LOX IMVI > 100 µM | Malme-3M 49.7 µM | NCI-H460 > 100 µM | OVCAR-4 > 100 µM | OVCAR-5 > 100 µM | OVCAR-8 89.1 µM | PC-3 > 100 µM | RPMI-8226 32.5 µM | RXF 393 77.3 µM | SF-268 63.8 µM | SNB-19 > 100 µM | SW-620 > 100 µM

CCOC(=O)/C=C/CCC(C)(C)COC(C)=O
inactive: EKVX > 10 µM | HCT-116 > 10 µM | HOP-62 > 10 µM | HOP-92 > 10 µM | LOX IMVI > 10 µM | NCI-H460 > 10 µM | OVCAR-4 > 10 µM | OVCAR-5 > 10 µM | OVCAR-8 > 10 µM | PC-3 > 10 µM | RPMI-8226 > 10 µM | RXF 393 > 10 µM | SF-268 > 10 µM | SK-MEL-5 > 10 µM | SNB-19 > 10 µM | SW-620 > 10 µM | UO-31 > 10 µM

Cc1cn(CCCCCOC(=O)NC(CCCNC(N)=O)C(=O)O)c(=O)[nH]c1=O (stereo not drawn)
inactive: EKVX > 100 µM | HCT-116 > 100 µM | HOP-62 > 100 µM | HOP-92 > 100 µM | LOX IMVI > 100 µM | NCI-H460 > 100 µM | OVCAR-4 > 100 µM | OVCAR-5 > 100 µM | OVCAR-8 > 100 µM | PC-3 > 100 µM | RPMI-8226 > 100 µM | RXF 393 > 100 µM | SF-268 > 100 µM | SNB-19 > 100 µM | SW-620 > 100 µM | UO-31 > 100 µM

Nc1nn2c(=O)c3ccccc3nc2s1
inactive: EKVX > 100 µM | HCT-116 57.3 µM | HOP-62 > 100 µM | HOP-92 > 100 µM | LOX IMVI 17.5 µM | NCI-H460 > 100 µM | OVCAR-4 > 100 µM | OVCAR-5 > 100 µM | OVCAR-8 30 µM | PC-3 > 100 µM | RPMI-8226 32.4 µM | RXF 393 > 100 µM | SF-268 38.8 µM | SK-MEL-5 56 µM | SNB-19 > 100 µM | SW-620 19.2 µM | UO-31 28.2 µM

CC(C)=CCCC1(Sc2ccccc2)C(=O)OCC1C=C(C)C (stereo not drawn)
inactive: EKVX 19 µM | HCT-116 11.5 µM | HOP-62 48.9 µM | LOX IMVI 16.5 µM | Malme-3M 17.5 µM | NCI-H460 18.3 µM | OVCAR-4 29 µM | OVCAR-5 21.3 µM | OVCAR-8 30.5 µM | PC-3 31.8 µM | RPMI-8226 21.5 µM | RXF 393 17.1 µM | SF-268 38.6 µM | SK-MEL-5 20.3 µM | SNB-19 21.5 µM | SW-620 61.9 µM | UO-31 22.6 µM
